From patent publication US20230041197A1, “TREATMENT OF A DISEASE OF THE GASTROINTESTINAL TRACT WITH AN IMMUNOMODULATOR” (Progenity, Inc., priority 2018, published 2023)
Counter-ions that a name gives are not always drawn.

How the values were obtained:
[1] = Tacrolimus blood pharmacokinetics, oral vs intra-cecal ingestible device (Example 10); type: in vivo, Yorkshire-Cross farm swine
Experimental: The primary objective of this study was to compare the tissue, plasma, rectal sample, and GI content pharmacokinetics of tacrolimus through oral versus intra-cecal ingestible device delivery in normal Yorkshire-Cross farm swine.
No further randomization procedure was employed.
Animals in Group 1 received an ingestible device containing 0.8 mL of vehicle solution (80% alcohol, 20% HCO-60). Animals in Group 2 received orally […] liquid formulation of tacrolimus at 4 mg/0.8 mL per animal (Prograf: 5 mg/mL). Animals in Group 3 received intra-cecally an ingestible device containing tacrolimus at 1 mg in 0.8 mL per ingestible device. Animals in Group 4 received intra-cecally an ingestible device containing tacrolimus at 2 mg in 0.8 mL per ingestible device. Animals in Group 5 received intra-cecally an ingestible device containing tacrolimus at 4 mg in 0.8 mL per ingestible device. To control for potential confounding effects of the surgery, all groups fast on Day −11 at least 24 hr before being subjected to anesthesia followed by surgical placements of a cecal port by a veterinary surgeon at Day −10. All animals were fasted for at least 12 hr prior to dosing on Day 1. Animals were dosed via either intra-cecal dosing (IC) or oral dosing (PO) at Day 1 (between 6-8 p.m.). All animals resumed feeding at approximately 4 hours after dose (11-12 p.m. after dosing).
Approximately 200-400 mg of rectal content were collected, if available, with a fecal swab (Copan Diagnostics Nylon Flocked Dry Swabs, 502CS01). The fecal swab was pre-weighed and weighed after collection in the collection tube (Sterile Tube and Cap No Media, PFPM913S), and the sample weight was recorded. The fecal swab was broken via the breakpoint, and was stored in the collection tube, and immediately frozen at −70° C. […] Immediately following euthanasia, tissue was collected.
Group 2 animals were administered a single oral dose of tacrolimus at 4 mg/0.8 mL (0.08-mg/kg) (in the vehicle solution) on Day 1. Plasma, rectal content sample, tissue collection, GI content collection and related procedures/storage/shipments was the same as those employed in Group 1.
Group 3 animals were administered a single intra-cecal ingestible device containing tacrolimus at 1-mg/0.8 mL (0.02 mg/kg) (in the vehicle solution) on Day 1 by a veterinary surgeon. Plasma, rectal content sample, tissue collection, GI content collection and related procedures/storage/shipments was the same as those employed in Group 1. All samples were analyzed for tacrolimus.
Group 4 animals were administered a single intra-cecal ingestible device of tacrolimus at 2 mg/0.8 mL (0.04 mg/kg) (in sterile vehicle solution) on Day 1 by a veterinary surgeon.
Group 5 animals are administered a single intra-cecal ingestible device containing tacrolimus at 4 mg/0.8 mL (0.08 mg/kg) (in the vehicle solution) on Day 1 by a veterinary surgeon. Plasma, rectal content sample, tissue collection, GI content collection and related procedures/storage/shipments were the same as those employed in Group 1. All samples were analyzed for tacrolimus.

[2] = set-up: species or system Yorkshire-Cross farm swine; details: in vivo
From the text: Tables 32 and 33 provide the tissue and plasma ratios of the animals in Groups 2-5.

[3] = Tacrolimus in GI tissue, luminal content and rectal content, oral vs intra-cecal device (Example 10); type: in vivo, Yorkshire-Cross farm swine
Experimental: Animals in Group 1 (Vehicle Control) were administered a single intra-cecal ingestible device containing 0.8 mL Vehicle solution (80% alcohol, 20% castor oil (HCO-60) on Day 1. On Day −10 the animals were anesthetized, and a veterinary surgeon surgically placed an intra-cecal port in each animal. On Day 1, each animal was placed into a sling then a single intra-cecal ingestible device containing 0.8 mL vehicle solution (80% alcohol, 20% castor oil (HCO-60)) is introduced by the veterinary surgeon into the cecum via the cecal port in each animal. Following ingestible device placement, the animals were removed from the slings and placed back into their pens with water. […]
Approximately 200-400 mg of rectal content were collected, if available, with a fecal swab (Copan Diagnostics Nylon Flocked Dry Swabs, 502CS01). The fecal swab was pre-weighed and weighed after collection in the collection tube (Sterile Tube and Cap No Media, PFPM913S), and the sample weight was recorded. […]
For tissue necropsy, small intestine fluid and cecal fluid were collected separately from all the animals into two separate square plastic bottles, and stored at −20° C. The length and diameter of the cecum and the colon was measured from one animal in each group and recorded for reference. […] All samples were weighed, and the tissue sample weights were recorded. […]

[4] = test system: IL-6, GM-CSF, IL-15, IL-2, IL-12, IL-13, TNF-α, INF-γ
[5] = female, Yorkshire-Cross, pig, in vivo, 0.04 mg/kg

What does the source list for `C=CC[C@@H]1/C=C(\C)C[C@H](C)C[C@H](OC)[C@H]2O[C@@](O)(C(=O)C(=O)N3CCCC[C@H]3C(=O)O[C@H](/C(C)=C/[C@@H]3CC[C@@H](O)[C@H](OC)C3)[C@H](C)[C@@H](O)CC1=O)[C@H](C)C[C@@H]2OC` [tacrolimus]?
Cmax ([1]; PO, 0.09 mg/kg): 3.531 ± 3.84 ng/mL; concentration at 12 h ([1]; female, Yorkshire-Cross, pig, in vivo, 0.02 mg/kg): 0.746 ± 0.038 ng/mL; Tmax [1, 5]: 1 h; concentration at 12 h [1, 5]: 1.96 ± 0.491 ng/mL; concentration at 12 h ([1]; female, Yorkshire-Cross, pig, in vivo, 0.09 mg/kg): 4.35 ± 0.516 ng/mL; mean concentration in spiral colon lumen, transverse colon lumen and distal colon lumen [2]: statistically higher; mean concentration in spiral colon tissue and transverse colon tissue [2]: statistically higher; tissue (spiral and transverse colon) and luminal content (spiral, transverse, and distal colon) concentrations ([3]; IC capsule high and moderate dose vs PO): Significantly higher; mean concentration in cecum tissue and proximate colon tissue ([3]; intra-cecal vs oral, FIG. 76): higher

What does the source list for `C[C@@H]1CCN(C(=O)CC#N)C[C@@H]1N(C)c1ncnc2[nH]ccc12` [tofacitinib citrate]?
GM-CSF levels in plasma or colon tissue ([4]; IC vs PO treatment groups): nor was there a significant difference; IL-6 expression in plasma ([4]; PO or IC, 1 h and 3 h post-treatment): inhibition; inhibition of IL-6 expression in colon tissue ([4]; all IC treated groups and high dose PO group (45 mg/kg), FIG. 112B): sustained through 24 h post-dose; IL-6 inhibition in colon tissue ([4]; low dose PO group (15 mg/kg), by 12 h post-dose): Recovery from IL-6 inhibition
